The record followed here is patent US10611729B2, “Farnesoid X receptor antagonists” (City of Hope, priority 2014, dated 2020).

The test system of data set [1] is GeneBLAzer FXR-UAS-bla HEK 293T cells. The settings on record: for GB FXR Cell Cyto % Inh.: human, 16 h.
Method: (§2) To examine if certain chemical antagonistic effect was caused by cytotoxicity, the same GeneBLAzer FXR cells were used to perform cytotoxicity assay. This assay was set up like the FXR agonistic assay, with the exception of signal reading. Instead of detecting the reporter activities, CellTiter-Glo® assay was used to detect cell viability. DMSO with cells or without cells group were served as negative (0% Inhibition) or positive (100% Inhibition), respectively.
(§3) Cytotoxicity assays were performed side-by-side with the FXR agonistic assay using GeneBLAzer FXR-UAS-bla HEK 293T cells with CellTiter-Glo® Luminescent Cell Viability Assay reagent (Promega). Briefly, cells were maintained in DMEM supplemented with 10% dialyzed FBS, 0.1 mM non-essential amino acids, 25 mM HEPES, 100 μg/ml of hygromycin B, 100 μg/ml of zeocin, 100 units/ml penicillin and 100 μg/ml streptomycin in regular tissue culture flasks. […] As a positive control, the wells in column 24 of each plate were filled with 30 μL assay medium along with 0.5% DMSO. The final DMSO concentration was 0.5% in each assay well. After a 16 h incubation in a cell culture incubator at 37° C., the cell plates were cooled at room temperature for 20 min and then CellTiter-Glo® reagent 20 μl/well was added followed by an incubation for 20 min in the dark to allow the development of optimal luminescence signal. The luminescence signal from each well in plates was collected with an Envision plate reader equipped with Ultra-sensitive Luminescence detector. The DMSO group and no cell group served as negative (0% activation) and positive (100% activation) controls, respectively. The % inhibition was calculated using equation 4 below.
The target in data set [2] is T1, FXR (Homo sapiens, UniProt Q96RI1).
T1 sequence (Q96RI1 262-486 limits assumed): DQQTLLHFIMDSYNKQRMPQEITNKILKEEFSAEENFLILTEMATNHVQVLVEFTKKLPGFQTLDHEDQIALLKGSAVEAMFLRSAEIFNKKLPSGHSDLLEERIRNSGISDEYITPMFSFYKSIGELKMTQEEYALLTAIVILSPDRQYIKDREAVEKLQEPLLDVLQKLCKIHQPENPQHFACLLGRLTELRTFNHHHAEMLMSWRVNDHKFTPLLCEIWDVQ
The experiment in a line: GeneBLAzer FXR cell-based antagonistic assay (in presence of 400 nM GW4064). The settings on record: for IC50: with 400 nM GW4064, read-out: GB FXR Cell Anta. IC50. Details: the Gal4 DBD was fused to the LBD of FXR in this assay; host or cells: GeneBLAzer FXR-UAS-bla HEK 293T cells. The method, then:
A GeneBLAzer FXR cell-based assay was used to investigate the cellular activities of the 1,3,4-trisubstituted-pyrazol-4-carboxamide analogs. The assay detects the levels of a […] reporter controlled by a promoter containing the binding site of the DNA binding domain (DBD) of the GAL4 transcription factor; the Gal4 DBD was fused to the LBD of FXR in this assay.^35
(§1) FXR transactivation assays were performed using GeneBLAzer FXR-UAS-bla HEK 293T cells (Invitrogen). Cells were maintained according to the manufacturer's instructions. […] Plates were then incubated in dark for 90 min at room temperature before measuring the fluorescent emissions at 460 nm and 535 nm (using excitation at 400 nm) with an Envision plate reader with bottom read capacity. After background signal subtraction for individual emission channels, emission signals at 460 and 535 nm from each well were used to determine the ratio of 460 nm/535 nm. […] The % activation was calculated using equation 2.
The % inhibition was calculated using equation 3.

The target in data set [3] is T1, FXR. Nature of the data set: FXR TR-FRET binding assay (DY246 fluorescent probe). The note with it: for inhibition at 0.164 µM: at 164 nM; for IC50: mean ± SE. As to the method:
The FXR TR-FRET binding assay was performed as previously described^23 with modifications. […] The plate was spun down after a brief shake and incubated at room temperature for 20 min. The TR-FRET emission signals at 520 nm and 490 nm for each well was then collected using a PHERAstar plate reader (BMG LABTECH, Cary, N.C.) with an excitation wavelength of 337 nm, 100-μs delay time, and 200-μs integration time. The 520 nm/490 nm ratio from each well was then calculated. […] The % inhibition of tested chemicals at given concentration was calculated based on negative and positive controls using equation 1.
Background: In TR-FRET formats the signal depends on donor and acceptor labels being close together.

Data set [4] deals with T1, FXR. Nature of the data set: GeneBLAzer FXR cell-based agonistic assay. Details: the Gal4 DBD was fused to the LBD of FXR in this assay; host or cells: GeneBLAzer FXR-UAS-bla HEK 293T cells. The note with it: without GW4064, 16 h. The method, then: The reporter assays were performed after a16 h incubation.
as §1

The test system of data set [5] is GeneBLAzer FXR-UAS-bla HEK 293T cells. The experiment in a line: Cytotoxicity assay in GeneBLAzer FXR cells (CellTiter-Glo). The settings on record: class symbol NT. A general note: Cellular ATP, detected with luciferase, serves as a proxy for viable cell number.
Method: as §2, §3
Where [6] appears, read: read-out: GB FXR Cell Anta. % Inh.
The mark [7] stands for this setting: read-out: FXR TR-FRET Binding % Inh.

Like-named read-outs stand apart in the source and are kept apart here.

The IC50 is the concentration needed to halve the response being measured. With `COc1cccc(Cn2cc(C(=O)Nc3ccc(C)c(S(=O)(=O)N4CCOCC4)c3)c(-c3ccc(C)cc3)n2)c1` [Compound 4j, 1-(3-Methoxybenzyl)-N-(4-methyl-3-(morpholinosulfonyl)phenyl)-3-(p-tolyl)-1H-pyrazole-4-carboxamide], the “cytotoxicity” value in data set [1] is “no cytotoxicity”. In addition, at FXR [2], the “FXR antagonistic activity, SAR statement in words” value is reported as “enhanced antagonistic activity” and the IC50 is 468 ± 8.4 nM. Besides, at FXR [2] (ratio of IC50 values), the “fold more potent than Z26476908 in antagonistic assay” value worked out at 4.59 fold. Moreover, the inhibition at 40 µM on FXR [2] (setting [6]) was 98.9 ± 4.3%. The inhibition at 0.164 µM at FXR [3] (setting [7]) came to 130 ± 5.4%. The same molecule gave an IC50 on FXR [3] of 7.5 nM. The “fold more potent than Z26476908 in FXR TR-FRET binding assay” value on FXR [3] (ratio of IC50 values) came out at 5.26 fold. Moreover, the “FXR agonistic activity” value at FXR [4] is “no FXR agonistic activity”.

In the case of `Cc1ccc(-c2nn(CCCCO)cc2C(=O)Nc2ccc(C)c(S(=O)(=O)N3CCOCC3)c2)cc1` [Compound 4l, 1-(4-Hydroxybutyl)-N-(4-methyl-3-(morpholinosulfonyl)phenyl)-3-(p-tolyl)-1H-pyrazole-4-carboxamide], in data set [1] (40 μM), the “GB FXR Cell Cyto % Inh.” value is 5.9 ± 0.2%. In addition, the inhibition at 40 µM on FXR [2] (setting [6]) worked out at 97.6 ± 3.7%. In addition, the figures for the concentration for half-maximal inhibition (IC50) on FXR [2] and at FXR [3] were 2610 ± 290 nM and 130 ± 16 nM, respectively. The inhibition at 0.493 µM at FXR [3] (at 493 nM, read-out: FXR TR-FRET Binding % Inh.) worked out at 89.3 ± 0.1%.

As for `COc1cccc(-c2nn(C(C)C)cc2C(=O)Nc2ccc(C)c(S(=O)(=O)N3CCOCC3)c2)c1` [Compound 4n, 1-Isopropyl-3-(3-methoxyphenyl)-N-(4-methyl-3-(morpholinosulfonyl)phenyl)-1H-pyrazole-4-carboxamide], the “GB FXR Cell Cyto % Inh.” value in data set [1] (4.4 μM) is 10.8 ± 0.2%. In addition, the inhibition at 40 µM on FXR [2] (setting [6]) came out at 97.8 ± 1.5%. The IC50 on FXR [2] worked out at 3490 ± 640 nM; at FXR [3] it was 160 ± 22.6 nM. Besides, the inhibition at 13.3 µM at FXR [3] (setting [7]) amounted to 150 ± 6.9%.

`Cc1ccc(NC(=O)c2cn(C(C)C)nc2-c2ccc(C(F)(F)F)cc2)cc1S(=O)(=O)N1CCOCC1` [Compound 4p, 1-Isopropyl-N-(4-methyl-3-(morpholinosulfonyl)phenyl)-3-(4-(trifluoromethyl)phenyl)-1H-pyrazole-4-carboxamide]: the “GB FXR Cell Cyto % Inh.” value in data set [1] (40 μM) is 19.5 ± 1.1%. In addition, the inhibition at 40 µM at FXR [2] (setting [6]) turned out to be 100 ± 3.7%. The IC50 on FXR [2] came out at 1950 ± 280 nM; at FXR [3], 77.5 ± 3.7 nM. The inhibition at 4.4 µM at FXR [3] (setting [7]) came out at 133 ± 5.3%.

As to `Cc1ccc(-c2nn(C(C)C)cc2C(=O)N(C)c2ccc(C)c(S(=O)(=O)N3CCOCC3)c2)cc1` [Compound 8-1, 1-Isopropyl-N-methyl-N-(4-methyl-3-(morpholinosulfonyl)phenyl)-3-(p-tolyl)-1H-pyrazole-4-carboxamide], the “GB FXR Cell Cyto % Inh.” value in data set [1] (40 μM) came out at 15.0 ± 0.7%. For the same molecule, on FXR [2], the “activity against FXR at 1 μM” value was “weak activity”. The inhibition at 40 µM at FXR [2] (setting [6]) stood at 86.4 ± 2.8%; at FXR [3] (setting [7]), 133 ± 6.2%. Further, the figures for the IC50 on FXR [2] and on FXR [3] were 16200 nM and 489 ± 21.2 nM, respectively.

On to `COc1cccc(Cn2cc(C(=O)N(C)c3ccc(C)c(S(=O)(=O)N4CCOCC4)c3)c(C(C)C)n2)c1` [Compound 8-2, 3-Isopropyl-1-(3-methoxybenzyl)-N-methyl-N-(4-methyl-3-(morpholinosulfonyl)phenyl)-1H-pyrazole-4-carboxamide], for which, in data set [1] (40 μM), the “GB FXR Cell Cyto % Inh.” value is 13.5 ± 0.4 (40 μM) %. On FXR [2], the “activity against FXR at 1 μM” value was “weak activity”. Moreover, the inhibition at 20 µM on FXR [2] (setting [6]) is 2.4 ± 0.1%. The inhibition at 40 µM at FXR [3] (setting [7]) came to 80.3 ± 5.2%. Further, the IC50 on FXR [3] was found to be 5330 ± 240 nM.

As to `COc1cccc(Cn2cc(C(=O)N(C)c3ccc(C)c(S(=O)(=O)N4CCOCC4)c3)c(-c3cccc(OC)c3)n2)c1` [Compound 8-3, 1-(3-Methoxybenzyl)-3-(3-methoxyphenyl)-N-methyl-N-(4-methyl-3-(morpholinosulfonyl)phenyl)-1H-pyrazole-4-carboxamide], the “GB FXR Cell Cyto % Inh.” value in data set [1] (40 μM) is listed as 19.7 ± 0.4 (40 μM) %. The “activity against FXR at 1 μM” value at FXR [2] is “weak activity”. Moreover, the inhibition at 40 µM at FXR [2] (setting [6]) was determined as 23.8 ± 0.4%; at FXR [3] (setting [7]) it was 69.7 ± 3.5%. The molecule also yielded an IC50 at FXR [3] of 3810 ± 200 nM.

Consider `Cc1ccc(-c2nn(C(C)C)cc2CNc2ccc(C)c(S(=O)(=O)N3CCOCC3)c2)cc1` [Compound 9-1, N-((1-Isopropyl-3-(p-tolyl)-1H-pyrazol-4-yl)methyl)-4-methyl-3-(morpholinosulfonyl)aniline], for which, in data set [1] (40 μM), the “GB FXR Cell Cyto % Inh.” value is listed as 10.5 ± 0.3%. Moreover, the inhibition at 40 µM at FXR [2] (setting [6]) came out at 36.8 ± 0.3%. For the same molecule, the inhibition at 13.3 µM at FXR [3] (setting [7]) was determined as 99.5 ± 2.6%. Further, the IC50 at FXR [3] was 2040 ± 20 nM.

Consider `COc1cccc(Cn2cc(CNc3ccc(C)c(S(=O)(=O)N4CCOCC4)c3)c(C(C)C)n2)c1` [Compound 9-2, N-((3-Isopropyl-1-(3-methoxybenzyl)-1H-pyrazol-4-yl)methyl)-4-methyl-3-(morpholinosulfonyl)aniline], for which the “GB FXR Cell Cyto % Inh.” value in data set [1] (40 μM) is 13.9 ± 0.6 (40 μM) %. Further, the inhibition at 40 µM on FXR [2] (setting [6]) was found to be 64.8 ± 1.9%. Further, the IC50 turned out to be 27800 ± 1540 nM on FXR [2] and 2310 ± 320 nM on FXR [3]. Moreover, the inhibition at 4.4 µM on FXR [3] (setting [7]) is 72.5 ± 2.7%.

Consider `Cc1ccc(-c2nn(-c3ccccc3)cc2C(=O)Nc2ccc(C)c(S(=O)(=O)N3CCOCC3)c2)cc1` [Compound Z26476908, reference compound], for which the “GB FXR Cell Cyto % Inh.” value in data set [1] (40 μM) amounted to 17.9 ± 0.5%. Moreover, the inhibition at 40 µM at FXR [2] (setting [6]) turned out to be 77.2 ± 2.2%. Moreover, the values for the IC50 on FXR [2] and on FXR [3] were 2620 nM and 47 ± 5.1 nM, respectively. For the same molecule, the inhibition at 0.164 µM on FXR [3] (setting [7]) was determined as 100 ± 5.2%.

Consider `CC(C)c1onc(-c2c(Cl)cccc2Cl)c1COc1ccc(/C=C/c2cccc(C(=O)O)c2)c(Cl)c1` [GW4064], for which, in data set [5], the “GB FXR Cell Cyto % Inh.” value is given as “NT (NT: Not toxic (toxicity less than 5%))”.

Consider `C[C@H](CCC(=O)O)[C@H]1CC[C@H]2[C@@H]3CC[C@@H]4C[C@H](O)CC[C@]4(C)[C@H]3CC[C@]12C` [Lithocholic Acid, lithocholic acid], for which, in data set [5], the “GB FXR Cell Cyto % Inh.” value is reported as “NT (NT: Not toxic (toxicity less than 5%))”.
